# In patent publication US20090176791A1, “Diaryl Ureas for Treating Pulmonary Hypertension” (BAYER HEALTHCARE AG, priority 2005, published 2009):
# Tested on: monocrotaline-treated rats with pulmonary hypertension
# Settings: MCT-induced pulmonary arterial hypertension, 10 mg/kg by gavage once daily from day 14 to day 28 after MCT
# Protocol: The effects of the compounds and drug combinations according to the invention are tested in vitro on isolated rat pulmonary arteries and in vivo in monocrotaline-treated rats with pulmonary hypertension.
# Male Sprague Dawley rats (250-300 g) are treated with monocrotaline 60 mg/kg subcutaneously (=day 0). On day 14 after monocrotaline injection treatment the compound/combination to be tested is administered. On day 28 hemodynamic parameters, i.e. right ventricular pressure, systemic blood pressure, heart rate, arterial and venous oxygen saturation are measured and compared with untreated control animals.
smiles,measurement,setting,value
CNC(=O)c1cc(Oc2ccc(NC(=O)Nc3ccc(Cl)c(C(F)(F)F)c3)cc2)ccn1.Cc1ccc(S(=O)(=O)O)cc1 [p-toluenesulfonic acid salt of 4{4-[3-(4-chloro-3-trifluoromethylphenyl)-ureido]-phenoxy}-pyridine-2-carboxylic acid methyl amide],right ventricle/left ventricle+septum ratio (right ventricular hypertrophy),day 28,0.26±0.01
same,right ventricular systolic pressure,"measured on day 28, mean±SEM",36.50±1.50 mmHg
